The test system of data set [1] is A375 melanoma tumor. The data set can be described thus: In vivo efficacy in A375 melanoma tumor bearing mice. The source says: (§1) The synthesis of another series of single entity, multifunctional inhibitors achieved by covalent linking of structural analogs of a PI3K inhibitor mTOR inhibitor, and an MEK inhibitor is also disclosed. […] […].
Data set [2] concerns the target T1, PI3Kγ (Homo sapiens, UniProt P48736).
T1 construct: purchased Life Technologies (assay run by the vendor)
Put plainly: PI3K subtype enzyme inhibition. Type of data set: biochemical.

The test system of data set [3] is MEK1 and PI3K activities. Put plainly: In vivo MEK1 and PI3K inhibition in intracerebral D54 glioma bearing mice (Western blot). Conditions: intracerebral D54, 400 mg/kg oral gavage, 2 hours. The method, then: Mice bearing i.c. D54 tumors were treated with either vehicle or 400 mg/kg of ST-162 or ST-168 by oral gavage at 2 hours prior to sacrifice.
The subject of data set [4] is A375 (melanoma), D54 (glioma), CT26 colorectal cancer, A2058 (melanoma) cell lines. The data set can be described thus: Concurrent inhibition in tumor cell lines (multifunctional inhibitors). Type of data set: cell-based. The source says:
The synthesis of another series of single entity, multifunctional inhibitors achieved by covalent linking of structural analogs of a PI3K inhibitor mTOR inhibitor, and an MEK inhibitor is also disclosed.

In data set [5] the target is T2, PI3Kδ (Homo sapiens, UniProt O00329).
T2 construct: purchased Life Technologies (assay run by the vendor)
The data set can be described thus: PI3K subtype enzyme inhibition. Type of data set: biochemical.

In data set [6] the test system is mTOR/MEK1/PI3K. Put plainly: In vivo inhibition in A375 flank tumor (Western blot). The settings on record: oral, 2 hour postadministration. More on the design: species or system mouse.
From the text: as §1

Data set [7] deals with T3, PI3Kβ (Homo sapiens, UniProt P42338).
T3 construct: purchased Life Technologies (assay run by the vendor)
Put plainly: PI3K subtype enzyme inhibition. Type of data set: biochemical.

The test system of data set [8] is MEK1 and PI3K activities. Put plainly: In vivo MEK1 and PI3K inhibition in subcutaneous colon tumor CT26 (Western blot). More on the design: species or system mice. The settings on record: subcutaneous CT26, 400 mg/kg oral gavage, 2 hours. The method, then: Mice bearing subcutaneous colon tumors were treated with either vehicle or 400 mg/kg of ST-162 or ST-168 by oral gavage at 2 hours prior to sacrifice. The known MEK inhibitor 901 and PI3K inhibitors were also evaluated in this study.

The target of data set [9] is T4, PI3Kα (Homo sapiens, UniProt P42336).
T4 construct: purchased Life Technologies (assay run by the vendor)
Put plainly: PI3K subtype enzyme inhibition. Type of data set: biochemical.

The test system of data set [10] is MEK1 and PI3K activities. The data set can be described thus: In vivo MEK1 and PI3K inhibition in subcutaneous melanoma tumors A357 and A2058 (Western blot). Conditions: s.q. melanoma A357 and A2058, 400 mg/kg oral gavage, 2 hours. More on the design: species or system mice. Here is the method:
Mice bearing s.q. melanoma tumors were treated with either vehicle or 400 mg/kg of ST-162 or ST-168 by oral gavage at 2 hours prior to sacrifice.
For orientation: In western blotting, separated proteins are transferred to a membrane and probed.

The target of data set [11] is T1, PI3Kγ. Conditions: second value in parentheses, unexplained; cited from earlier work.

SMILES strings stand for the structures. Like-named read-outs stand apart in the source and are kept apart here. A value given as a limit tells only on which side of the number the result lay.

T1 sequence (P48736 whole entry): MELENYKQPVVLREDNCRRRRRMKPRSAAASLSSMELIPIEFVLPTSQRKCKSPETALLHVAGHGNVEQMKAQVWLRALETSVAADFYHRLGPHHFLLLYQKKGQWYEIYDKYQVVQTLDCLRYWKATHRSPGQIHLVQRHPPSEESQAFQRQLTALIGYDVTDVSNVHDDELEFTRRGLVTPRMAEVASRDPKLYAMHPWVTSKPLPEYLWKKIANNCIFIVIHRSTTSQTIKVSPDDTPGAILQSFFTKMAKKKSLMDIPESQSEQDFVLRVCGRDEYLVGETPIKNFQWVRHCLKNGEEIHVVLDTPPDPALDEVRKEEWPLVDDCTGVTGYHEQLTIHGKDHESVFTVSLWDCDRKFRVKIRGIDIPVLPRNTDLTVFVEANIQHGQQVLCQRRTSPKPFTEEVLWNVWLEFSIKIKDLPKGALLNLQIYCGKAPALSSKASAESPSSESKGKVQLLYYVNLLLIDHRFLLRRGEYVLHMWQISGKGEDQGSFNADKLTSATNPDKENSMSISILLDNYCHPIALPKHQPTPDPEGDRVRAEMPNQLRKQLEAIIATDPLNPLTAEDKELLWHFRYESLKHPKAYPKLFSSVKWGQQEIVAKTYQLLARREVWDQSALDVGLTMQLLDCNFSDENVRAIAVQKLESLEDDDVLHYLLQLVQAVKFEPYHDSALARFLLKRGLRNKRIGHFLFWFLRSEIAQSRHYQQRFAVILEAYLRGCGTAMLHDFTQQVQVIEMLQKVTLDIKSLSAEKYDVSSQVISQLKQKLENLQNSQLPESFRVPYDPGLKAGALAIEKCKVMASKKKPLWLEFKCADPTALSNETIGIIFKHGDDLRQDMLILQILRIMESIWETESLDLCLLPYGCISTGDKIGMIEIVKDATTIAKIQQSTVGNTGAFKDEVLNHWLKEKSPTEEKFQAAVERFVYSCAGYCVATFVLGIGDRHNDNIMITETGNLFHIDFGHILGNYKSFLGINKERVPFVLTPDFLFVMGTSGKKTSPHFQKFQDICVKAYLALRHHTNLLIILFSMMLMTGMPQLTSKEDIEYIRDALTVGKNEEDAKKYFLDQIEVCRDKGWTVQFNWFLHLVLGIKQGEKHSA
T3 sequence (P42338 whole entry): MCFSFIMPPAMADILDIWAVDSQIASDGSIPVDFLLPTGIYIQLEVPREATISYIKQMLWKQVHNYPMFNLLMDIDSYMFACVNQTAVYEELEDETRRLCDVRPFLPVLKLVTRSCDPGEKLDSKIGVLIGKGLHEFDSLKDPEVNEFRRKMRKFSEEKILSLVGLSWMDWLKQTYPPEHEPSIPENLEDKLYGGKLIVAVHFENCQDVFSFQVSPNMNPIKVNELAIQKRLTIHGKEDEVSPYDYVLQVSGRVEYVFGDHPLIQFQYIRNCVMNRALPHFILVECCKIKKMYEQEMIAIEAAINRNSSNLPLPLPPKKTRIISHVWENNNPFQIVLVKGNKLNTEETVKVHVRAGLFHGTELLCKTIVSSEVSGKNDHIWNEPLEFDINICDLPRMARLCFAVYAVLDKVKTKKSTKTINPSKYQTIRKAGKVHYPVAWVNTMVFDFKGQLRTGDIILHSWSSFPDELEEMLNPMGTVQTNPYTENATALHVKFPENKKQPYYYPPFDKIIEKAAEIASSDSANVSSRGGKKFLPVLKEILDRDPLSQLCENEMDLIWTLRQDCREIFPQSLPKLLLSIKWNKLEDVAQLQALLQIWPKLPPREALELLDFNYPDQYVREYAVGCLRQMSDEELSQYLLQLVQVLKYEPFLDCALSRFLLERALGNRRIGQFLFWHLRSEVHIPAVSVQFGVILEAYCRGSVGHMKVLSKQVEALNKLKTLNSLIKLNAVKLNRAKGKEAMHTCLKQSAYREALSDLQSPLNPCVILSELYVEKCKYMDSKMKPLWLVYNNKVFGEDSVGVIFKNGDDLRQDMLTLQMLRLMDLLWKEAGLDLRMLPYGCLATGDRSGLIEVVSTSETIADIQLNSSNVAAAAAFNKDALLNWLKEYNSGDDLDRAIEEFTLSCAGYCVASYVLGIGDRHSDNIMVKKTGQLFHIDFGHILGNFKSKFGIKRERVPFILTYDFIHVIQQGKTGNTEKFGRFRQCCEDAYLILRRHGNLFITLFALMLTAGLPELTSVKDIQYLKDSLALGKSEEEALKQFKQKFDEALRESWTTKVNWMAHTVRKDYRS
T3 sequence (P27986 whole entry partner): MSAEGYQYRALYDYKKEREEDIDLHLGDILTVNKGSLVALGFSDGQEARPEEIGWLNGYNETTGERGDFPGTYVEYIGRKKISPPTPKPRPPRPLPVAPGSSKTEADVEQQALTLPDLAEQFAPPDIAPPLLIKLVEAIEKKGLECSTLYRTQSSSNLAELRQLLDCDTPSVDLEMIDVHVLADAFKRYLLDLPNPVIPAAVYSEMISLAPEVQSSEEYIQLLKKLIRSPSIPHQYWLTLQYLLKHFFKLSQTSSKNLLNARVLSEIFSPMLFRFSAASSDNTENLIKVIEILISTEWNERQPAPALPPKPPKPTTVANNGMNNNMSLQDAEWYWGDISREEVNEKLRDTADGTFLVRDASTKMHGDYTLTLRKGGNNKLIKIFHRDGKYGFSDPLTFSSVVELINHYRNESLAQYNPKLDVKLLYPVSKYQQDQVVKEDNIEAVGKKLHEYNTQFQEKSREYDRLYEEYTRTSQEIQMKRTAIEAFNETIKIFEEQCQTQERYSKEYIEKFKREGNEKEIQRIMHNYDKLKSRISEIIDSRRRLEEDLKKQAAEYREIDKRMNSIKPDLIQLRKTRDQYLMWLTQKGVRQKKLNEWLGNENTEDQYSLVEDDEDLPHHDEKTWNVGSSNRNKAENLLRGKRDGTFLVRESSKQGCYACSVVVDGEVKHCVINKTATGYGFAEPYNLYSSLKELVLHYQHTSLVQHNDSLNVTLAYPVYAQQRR
T2 sequence (O00329 whole entry): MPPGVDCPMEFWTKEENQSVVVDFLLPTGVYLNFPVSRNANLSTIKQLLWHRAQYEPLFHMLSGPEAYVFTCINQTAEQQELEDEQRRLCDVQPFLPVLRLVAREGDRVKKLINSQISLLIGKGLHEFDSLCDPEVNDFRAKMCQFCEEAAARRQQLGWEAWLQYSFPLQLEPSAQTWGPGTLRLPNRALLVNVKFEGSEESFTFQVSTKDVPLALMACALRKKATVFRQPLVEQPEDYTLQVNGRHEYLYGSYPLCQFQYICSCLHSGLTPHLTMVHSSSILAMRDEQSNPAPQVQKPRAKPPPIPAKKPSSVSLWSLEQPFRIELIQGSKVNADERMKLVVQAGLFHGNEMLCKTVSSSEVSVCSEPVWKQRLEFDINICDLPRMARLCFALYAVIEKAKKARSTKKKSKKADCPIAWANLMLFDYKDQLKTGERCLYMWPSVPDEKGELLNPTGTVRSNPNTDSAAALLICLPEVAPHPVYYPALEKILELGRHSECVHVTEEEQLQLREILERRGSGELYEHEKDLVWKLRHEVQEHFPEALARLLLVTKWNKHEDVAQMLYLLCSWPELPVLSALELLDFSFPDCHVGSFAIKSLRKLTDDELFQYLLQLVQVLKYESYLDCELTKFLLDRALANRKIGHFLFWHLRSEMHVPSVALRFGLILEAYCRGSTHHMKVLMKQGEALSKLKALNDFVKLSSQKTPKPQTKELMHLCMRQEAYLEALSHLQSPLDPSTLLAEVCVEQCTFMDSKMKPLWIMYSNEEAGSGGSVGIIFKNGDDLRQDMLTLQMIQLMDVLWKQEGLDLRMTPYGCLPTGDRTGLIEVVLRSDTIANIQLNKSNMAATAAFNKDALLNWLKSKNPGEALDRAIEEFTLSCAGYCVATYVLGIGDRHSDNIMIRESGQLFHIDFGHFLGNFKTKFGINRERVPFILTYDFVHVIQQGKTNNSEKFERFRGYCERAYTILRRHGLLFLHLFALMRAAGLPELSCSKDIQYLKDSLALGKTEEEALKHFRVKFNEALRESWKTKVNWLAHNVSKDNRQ
T2 sequence (P27986 whole entry partner): as the sequence (P27986 whole entry partner) above
T4 sequence (P42336 whole entry): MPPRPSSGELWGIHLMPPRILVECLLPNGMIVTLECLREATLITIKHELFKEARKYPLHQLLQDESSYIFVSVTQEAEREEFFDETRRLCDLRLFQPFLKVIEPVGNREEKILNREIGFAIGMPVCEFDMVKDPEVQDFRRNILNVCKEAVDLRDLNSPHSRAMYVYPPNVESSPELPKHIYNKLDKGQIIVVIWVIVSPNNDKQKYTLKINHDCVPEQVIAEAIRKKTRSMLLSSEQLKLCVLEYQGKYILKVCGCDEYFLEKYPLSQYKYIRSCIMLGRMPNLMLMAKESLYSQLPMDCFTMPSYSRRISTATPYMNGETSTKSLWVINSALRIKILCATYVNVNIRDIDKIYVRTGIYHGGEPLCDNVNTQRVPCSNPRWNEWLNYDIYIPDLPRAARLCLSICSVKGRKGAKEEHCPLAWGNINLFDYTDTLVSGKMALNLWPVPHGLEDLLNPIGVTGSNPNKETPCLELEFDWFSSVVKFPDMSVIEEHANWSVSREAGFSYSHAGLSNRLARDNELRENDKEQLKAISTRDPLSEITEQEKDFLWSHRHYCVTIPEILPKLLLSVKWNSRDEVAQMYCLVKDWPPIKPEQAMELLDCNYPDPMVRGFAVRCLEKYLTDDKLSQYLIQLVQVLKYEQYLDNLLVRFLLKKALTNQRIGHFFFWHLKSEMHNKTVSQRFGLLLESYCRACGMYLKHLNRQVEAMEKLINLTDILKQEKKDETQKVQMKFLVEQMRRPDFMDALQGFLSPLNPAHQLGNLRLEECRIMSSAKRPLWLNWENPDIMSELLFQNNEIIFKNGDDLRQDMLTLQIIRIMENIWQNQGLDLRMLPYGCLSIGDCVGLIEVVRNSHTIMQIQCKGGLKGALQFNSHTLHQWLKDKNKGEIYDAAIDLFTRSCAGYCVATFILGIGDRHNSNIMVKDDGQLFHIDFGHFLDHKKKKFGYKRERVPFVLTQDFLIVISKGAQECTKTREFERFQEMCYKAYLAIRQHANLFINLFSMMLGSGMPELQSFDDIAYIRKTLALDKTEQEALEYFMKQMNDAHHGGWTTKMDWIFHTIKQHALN
T4 sequence (P27986 whole entry partner): as the sequence (P27986 whole entry partner) above

Consider `O=C(NOCCOCCOCCOCCC(=O)N1CCN(c2nc(N3CCOCC3)nc(-n3c(C(F)F)nc4ccccc43)n2)CC1)c1ccc(F)c(F)c1Nc1ccc(I)cc1F` [ST-168], for which the “reduction in tumor size over vehicle control” value in data set [1] (A375, 400 mg/kg daily oral, 35 days post-treatment initiation) is given as over 6 fold. The lifespan result in [1] (A375 tumor bearing mice, 400 mg/kg daily oral) is on record as “significantly increased lifespan”. Moreover, the “side effects (such as loss in body weight)” value in data set [1] (long term dosage, 40 daily oral doses, 400 mg/kg) is “no detectable side effects”. Besides, the IC50 in data set [2] (mean ± SEM, read-out: PI3K Subtype Inhibition Activity PI3Kγ) amounted to 2290 ± 241 nM; in data set [2] (read-out: PI3K Subtype Enzyme Inhibition Data IC50 PI3Kγ) it was 2290 ± 241 nM; in [5] (mean ± SEM, read-out: PI3K Subtype Inhibition Activity PI3Kδ), 41.7 ± 2.1 nM; in data set [5] (read-out: PI3K Subtype Enzyme Inhibition Data IC50 PI3Kδ), 41.7 ± 2.1 nM; in [7] (mean ± SEM, read-out: PI3K Subtype Inhibition Activity PI3Kβ), 1480 ± 377 nM; in data set [7] (read-out: PI3K Subtype Enzyme Inhibition Data IC50 PI3Kβ), 1480 ± 377 nM. The IC50 in [9] (mean ± SEM, read-out: PI3K Subtype Inhibition Activity PI3Kα) is 69.2 ± 2.2 nM; in data set [9] (read-out: PI3K Subtype Enzyme Inhibition Data IC50 PI3Kα) it was 69.2 ± 2.2 nM. Also, the “MEK1 and PI3K activities in tumor relative to vehicle control” value in [3] is “successfully modulated both MEK1 and PI3K activities”; in data set [8], “successfully modulated MEK1 and PI3K activities”; in [10], “successfully modulated both MEK1 and PI3K activities”. In addition, the “Concurrent inhibition in tumor cell lines” value in data set [4] is “Concurrent inhibition was demonstrated”. In [6], the “inhibition of mTOR/MEK1/PI3K in tumor tissue” value is listed as “combined inhibition of mTOR/MEK1/PI3K was achieved”.

On to `COc1ncc(-c2ccc3nccc(-c4ccnnc4)c3c2)cc1NS(=O)(=O)c1ccc(F)cc1F` [GSK 458, reference compound], for which the IC50 was 0.06 nM in [11]; 0.83 ± 0.1 nM in data set [2] (ST-182 and intermediates, read-out: PI3Kγ IC50).

(Values after patent US10919877B2, “Multifunctional inhibitors of MEK/PI3K and mTOR/MEK/PI3K biological pathways and therapeutic methods using the same” (THE REGENTS OF THE UNIVERSITY OF MICHIGAN, priority 2016, dated 2021).)
